According to the supplement of paper PMC7661543:
± gives the standard deviation of the averaged measurements.

Assays:
Test in all cases: relative cell number vs DMSO control (72 h) (% of DMSO); higher = less growth inhibition (more cells)
Settings in all cases: sgRNA knockout: sgNT
MDA-MB-231 = system: MDA-MB-231
Method in brief: (§1)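 Doxycycline at 100 ng/mL was applied for 6 days to pooled Cas9-engineered breast cancer lines, each holding 12 sgRNA perturbations. The cells were then seeded at 5000 per 96-well and exposed in duplicate for 72 h to four 10-fold doses (10 nM–10 μM or 1 nM–1 μM). Cell numbers were read from sequenced sgRNA and cell-line barcodes using per-sample 293T spike-in standard curves. The reported relative cell number is the percent of the median of DMSO-treated samples.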

HCC-38 = system: HCC-38
Method in brief: as §1

SKBR3 = system: SKBR3
Method in brief: as §1

ZR-75-1 = system: ZR-75-1
Method in brief: as §1

BT-20 = system: BT-20
Method in brief: as §1

| SMILES | relative cell number (MDA-MB-231; 10 nM) | relative cell number (MDA-MB-231; 100 nM) | relative cell number (MDA-MB-231; 1000 nM) | relative cell number (MDA-MB-231; 10000 nM) | relative cell number (HCC-38; 10 nM) | relative cell number (HCC-38; 100 nM) | relative cell number (HCC-38; 1000 nM) | relative cell number (HCC-38; 10000 nM) | relative cell number (SKBR3; 10 nM) | relative cell number (SKBR3; 100 nM) | relative cell number (SKBR3; 1000 nM) | relative cell number (SKBR3; 10000 nM) | relative cell number (ZR-75-1; 10 nM) | relative cell number (ZR-75-1; 100 nM) | relative cell number (ZR-75-1; 1000 nM) | relative cell number (ZR-75-1; 10000 nM) | relative cell number (BT-20; 10 nM) | relative cell number (BT-20; 100 nM) | relative cell number (BT-20; 1000 nM) | relative cell number (BT-20; 10000 nM) |
| --- | --- | --- | --- | --- | --- | --- | --- | --- | --- | --- | --- | --- | --- | --- | --- | --- | --- | --- | --- | --- |
| CNC(=O)c1cc(Oc2ccc(NC(=O)Nc3ccc(Cl)c(C(F)(F)F)c3)cc2)ccn1 [Sorafenib] | 86.7 ± 5 | 93 ± 8.3 | 90.7 ± 10 | 41.1 ± 4.4 | 97.1 ± 9.2 | 133 ± 45 | 124 ± 8.8 | 54.6 ± 2.4 | 102 ± 4.4 | 97.1 ± 4.3 | 106 ± 2.8 | 47.8 ± 11 | 70.2 ± 11 | 104 ± 2.9 | 87.4 ± 19 | 41.7 ± 17 | 116 ± 3.8 | 100 ± 13 | 108 ± 36 | 50.8 ± 8.9 |
| O=C(CCc1ccc(O)cc1)c1c(O)cc(O)cc1O [Phloretin] | 83.2 ± 2.8 | 103 ± 20 | 127 ± 16 | 106.6 ± 0.71 | 104 ± 10 | 105 ± 7 | 101 ± 13 | 113 ± 11 | 76.3 ± 4.5 | 76.5 ± 1 | 100 ± 1.3 | 90.5 ± 3.9 | 91.1 ± 42 | 100 ± 55 | 74 ± 11 | 112 ± 13 | 102 ± 36 | 105 ± 16 | 96.7 ± 8.2 | 107 ± 15 |
| C[C@@]1(C(=O)Nc2ccc(F)nc2)CCCN1c1nc(Nc2cc(C3CC3)n[nH]2)c2cccn2n1 | 126 ± 33 | 96.4 ± 18 | 70.4 ± 5.7 | 43.2 ± 7.3 | 87.8 ± 4.9 | 82.5 ± 10 | 81.5 ± 2.7 | 45.49 ± 0.25 | 72 ± 24 | 89.9 ± 15 | 74.8 ± 14 | 66 ± 6.5 | 92.7 ± 27 | 73.9 ± 16 | 36 ± 18 | 30.8 ± 12 | 77.5 ± 8.7 | 89.5 ± 17 | 90 ± 11 | 67.5 ± 16 |
| CC(C)(C)c1nc(-c2cccc(NS(=O)(=O)c3c(F)cccc3F)c2F)c(-c2ccnc(N)n2)s1 [Dabrafenib] | 106 ± 7.5 | 137 ± 23 | 91.8 ± 27 | 115 ± 10 | 141 ± 32 | 96.9 ± 5.1 | 93.8 ± 4.2 | 94.7 ± 7.9 | 133 ± 3.3 | 121 ± 1.7 | 96.5 ± 9.5 | 104 ± 14 | 129 ± 31 | 128 ± 3.2 | 119 ± 46 | 76.8 ± 7.1 | 134 ± 10 | 116 ± 16 | 109 ± 12 | 112 ± 1.6 |
| Cc1ccc(C(=O)Cn2c3c(sc2=N)CCCC3)cc1 [PifithrinAlpha] | 114 ± 41 | 85.3 ± 57 | 94.3 ± 30 | 57.2 ± 3.8 | 91.7 ± 2.4 | 91.4 ± 4.6 | 83.2 ± 14 | 90.2 ± 8.3 | 133 ± 10 | 84.2 ± 16 | 85.6 ± 2.5 | 67.1 ± 6.8 | 121 ± 13 | 90.9 ± 20 | 61.5 ± 23 | 37.7 ± 11 | 135 ± 2.2 | 95.61 ± 0.61 | 103 ± 1.8 | 77.5 ± 1.6 |
| Cc1ccc(F)c(NC(=O)Nc2ccc(-c3cccc4[nH]nc(N)c34)cc2)c1 [Linifanib] | 70.5 ± 23 | 112 ± 30 | 100 ± 22 | 22.1 ± 0.58 | 94.4 ± 14 | 77.6 ± 10 | 118 ± 15 | 55.4 ± 4.2 | 88.8 ± 1.8 | 107 ± 3.3 | 121 ± 7.9 | 40 ± 0.42 | 86.4 ± 18 | 97.6 ± 3.9 | 93.6 ± 40 | 33.4 ± 4.6 | 73.8 ± 4.6 | 105 ± 23 | 89.1 ± 1 | 60.5 ± 3.3 |
| C[C@]1(O)C[C@@H](c2nc(-c3ccc4ccc(-c5ccccc5)nc4c3)c3c(N)nccn32)C1 [Linsitinib] | 116 ± 10 | 104 ± 14 | 65.3 ± 20 | 64.9 ± 13 | 95.4 ± 8 | 99.1 ± 12 | 78 ± 3.6 | 70.1 ± 4.4 | 94.7 ± 12 | 104 ± 18 | 78.71 ± 0.77 | 78.1 ± 11 | 90.6 ± 23 | 95.7 ± 6.6 | 70.9 ± 15 | 65.7 ± 3.7 | 111 ± 19 | 121 ± 28 | 79.2 ± 3.2 | 102 ± 11 |
| CC(=O)O[C@H]1C(=O)[C@@]2(C)[C@H]([C@H](OC(=O)c3ccccc3)[C@]3(O)C[C@H](OC(=O)[C@H](O)[C@@H](NC(=O)c4ccccc4)c4ccccc4)C(C)=C1C3(C)C)[C@]1(OC(C)=O)CO[C@@H]1C[C@@H]2O [Paclitaxel] | 28.8 ± 15 | 15.6 ± 2.2 | 21.4 ± 7.8 | 29.9 ± 10 | 31.4 ± 5.5 | 14.4 ± 5.1 | 18 ± 2.9 | 25.4 ± 3.6 | 10.2 ± 2.9 | 6.23 ± 1.4 | 11.1 ± 1.4 | 16.4 ± 9.7 | 28.3 ± 2 | 18.6 ± 18 | 21.6 ± 3.9 | 43.8 ± 17 | 57.9 ± 10 | 18.7 ± 15 | 25.7 ± 9.2 | 47.3 ± 15 |
| CC1(C)CCC(c2ccc(Cl)cc2)=C(CN2CCN(c3ccc(C(=O)NS(=O)(=O)c4ccc(N[C@H](CCN5CCOCC5)CSc5ccccc5)c(S(=O)(=O)C(F)(F)F)c4)cc3)CC2)C1 [Navitoclax] | 93.9 ± 27 | 108 ± 6.7 | 93.9 ± 13 | 52.5 ± 7.4 | 96.9 ± 14 | 102 ± 12 | 76.6 ± 12 | 47.9 ± 1.3 | 74.6 ± 24 | 117 ± 33 | 50 ± 18 | 75.1 ± 14 | 86.5 ± 10 | 95.5 ± 39 | 105 ± 11 | 81.5 ± 24 | 85.4 ± 11 | 90.6 ± 3.6 | 94.8 ± 3.5 | 78 ± 12 |
